# Experiments:
# [1] = tested on: calcium chloride induced AAA (CaCl2 AAA); experiment: calcium chloride induced AAA in mouse, aneurysm formation; format: in vivo; conditions: mice, 1.25 mg/kg i.v., after 7 days
# Excerpt: FIG. 2 illustrates the effect of OLCs inhibition on mouse AAA. Representative pictures of CaCl2 AAA with intravenous (“i.v.”) saline or bisphosphonate injection. Fold increase of the maximum size 7 days after the treatment was shown. n=3, P<0.05. Initially, the inventors identified robust calcification in human AAA samples. The inventors have also identified the existence of OLCs in the medial layer of aneurismal aorta, which were barely detected in age matched aortic tissues from autopsy and stenotic disease both by tartrate-resistant acid phosphatase (“TRAP”) staining, a conventional staining for osteoclast, and immunohistochemistry for osteoclast marker, TRAP (see FIG. 1). The inventors also have identified calcification and OLCs in experimental calcium chloride induced AAA (CaCl2 AAA) in mouse. […] (see FIG. 2) The dose of pamidronate was equivalent to FDA approved dose of pamidronate for osteolytic bone lesions (90 mg/body).
# [2] = tested on: pre-existing (induced) AAAs; experiment: pre-existing (induced) AAAs in mice, delayed treatment; format: in vivo; conditions: weekly injection started 7 days after aneurysm induction, over 5 weeks vs. saline control
# Experimental: In addition, the inventors have extended their studies to cover the other major subclass of bisphosphonates (i.e., non-nitrogenous bisphosphonates) by studying the effect of etidronate (7.5 mg/kg i.v.) on aneurysm formation over 7 days (see FIG. 3B). The dose of etidronate was equivalent to FDA approved dose for Paget's disease (5-10 mg/kg). […] The bisphosphonate treatment corresponding to the data in FIG. 3A was started 1 week post surgery. The bisphosphonate treatments resulting in the data shown in FIGS. 4 (pamidronate) and 5 (etidronate) differed from the previous treatment in that they included weekly bisphosphonate administration immediately after surgery through 6 weeks post surgery.
smiles,measurement,setting,value
NCCC(O)(P(=O)(O)O)P(=O)(O)O [pamidronate],inhibition of aneurysm formation,[1],apparently complete inhibition of aneurysm formation
same,further growth of the aneurysm,[2],immediately halted further growth of the aneurysm

# — patent US8748410B2, “Methods of treating aneurysm” (Wisconsin Alumni Research Foundation, priority 2010, dated 2014)
